Laboratory results from US12559529B2, “NPY2 receptor agonists” (Boehringer Ingelheim International GmbH, priority 2019, dated 2026).

Tests used:
[1] = target: T1, Human Neuropeptide Y2 Receptor (Homo sapiens, UniProt P49146); assay: Radioligand binding competition assay (RLB); settings: Table 3; human 125I-PYY (1-36) 0.02 nM, Y2 receptor membranes; read-out: Ki
T1 construct: purchased CHEMICON HTS066M
T1 sequence (P49146 1-381): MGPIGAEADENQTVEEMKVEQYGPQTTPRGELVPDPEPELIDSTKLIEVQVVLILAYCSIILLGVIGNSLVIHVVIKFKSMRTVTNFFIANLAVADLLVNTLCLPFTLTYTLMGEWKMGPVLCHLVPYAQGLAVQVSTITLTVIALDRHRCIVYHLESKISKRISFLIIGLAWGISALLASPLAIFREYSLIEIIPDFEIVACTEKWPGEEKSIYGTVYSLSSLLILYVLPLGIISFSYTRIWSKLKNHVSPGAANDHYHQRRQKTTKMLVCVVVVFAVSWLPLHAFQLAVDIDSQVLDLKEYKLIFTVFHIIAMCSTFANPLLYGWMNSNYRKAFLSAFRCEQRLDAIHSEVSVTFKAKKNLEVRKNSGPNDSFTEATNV
Summary of the method: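 Membranes (0.5 μg/well) and test peptides, serially diluted from 1 mM DMSO stocks, were incubated 2 hours at room temperature in HEPES buffer pH 7.4 with Mg, Ca and ovalbumin.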

[2] = tested on: normal NMRI mice; assay: Effect on acute food intake in normal NMRI mice; assay type: in vivo; settings: male NMRI mice, 10 nmol/kg subcutaneously once
Summary of the method: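 Male NMRI mice acclimatized in an HM-2 real-time food intake monitoring system, fasted 6 h before dark phase. Single subcutaneous dose of 10 nmol/kg peptide given 1 h before dark; n=7-8. Food intake expressed as % of vehicle group (50 mM phosphate pH7, 5% Mannitol).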

Row | SMILES | Ki [1] [nM] | Acute Food Intake 24 h [% vehicle] [2] [% vehicle]
1 | CC(C)CC(=O)N[C@@H](C)C(=O)N1CCC[C@H]1C(=O)N[C@@H](CCC(=O)O)C(=O)N[C@@H](CCCCNC(=O)COCCOCCNC(=O)COCCOCCNC(=O)CC[C@H](NC(=O)CCCCCCCCCCCCCCCCC(=O)O)C(=O)O)C(=O)N1CCC[C@H]1C(=O)N[C@@H](CCC(=O)O)C(=O)N[C@@H](CCC(=O)O)C(=O)N[C@@H](CC(=O)O)C(=O)N[C@@H](C)C(=O)N[C@@H](CO)C(=O)N1CCC[C@H]1C(=O)N[C@@H](CCC(=O)O)C(=O)N[C@@H](CCC(=O)O)C(=O)N[C@@H](CC(C)C)C(=O)N[C@@H](CCC(N)=O)C(=O)N[C@@H](CCC(N)=O)C(=O)N[C@@H](Cc1ccc(O)cc1)C(=O)N[C@@H](Cc1ccc(O)cc1)C(=O)N[C@H](C(=O)N[C@@H](CCC(=O)O)C(=O)N[C@@H](CC(C)C)C(=O)N[C@@H](CCCNC(=N)N)C(=O)N[C@@H](Cc1c[nH]cn1)C(=O)N[C@@H](Cc1ccc(O)cc1)C(=O)N[C@@H](Cc1ccc(O)cc1)C(=O)N[C@@H](CC(N)=O)C(=O)N[C@@H](Cc1c[nH]c2ccccc12)C(=O)N[C@@H](CC(C)C)C(=O)N[C@H](C(=O)N[C@@H](CCCNC(=N)N)C(=O)N[C@@H](CCC(N)=O)C(=O)N[C@@H](CCCNC(=N)N)C(=O)N[C@@H](Cc1ccc(O)cc1)C(N)=O)[C@@H](C)O)C(C)C [Compound 49, N{alpha-4}-(3-methylbutanoyl)-N{epsilon-7}-[2-(2-{2-[2-(2-{2-[(4S)-4-carboxy-4-(17-carboxyheptadecanamido)butanamido]ethoxy}ethoxy)acetamido]ethoxy}ethoxy)acetamido]-[4A,7K,9E,18Q,19Q,22V,23E,28Y,30W,31L]hPYY (4-36)] | 0.89 | 60
2 | CC(C)CC(=O)N[C@@H](C)C(=O)N1CCC[C@H]1C(=O)N[C@@H](CCC(=O)O)C(=O)N[C@@H](CCCCNC(=O)COCCOCCNC(=O)COCCOCCNC(=O)CC[C@H](NC(=O)CCCCCCCCCCCCCCCCC(=O)O)C(=O)O)C(=O)N1CCC[C@H]1C(=O)N[C@@H](CCC(=O)O)C(=O)N[C@@H](C)C(=O)N[C@@H](CC(=O)O)C(=O)N[C@@H](C)C(=O)N[C@@H](CCC(=O)O)C(=O)N1CCC[C@H]1C(=O)N[C@@H](CCC(=O)O)C(=O)N[C@@H](CCC(=O)O)C(=O)N[C@@H](CC(C)C)C(=O)N[C@@H](CCC(N)=O)C(=O)N[C@@H](CCCNC(=N)N)C(=O)N[C@@H](Cc1ccc(O)cc1)C(=O)N[C@@H](Cc1ccc(O)cc1)C(=O)N[C@H](C(=O)N[C@@H](CO)C(=O)N[C@@H](CC(C)C)C(=O)N[C@@H](CCCNC(=N)N)C(=O)N[C@@H](Cc1c[nH]cn1)C(=O)N[C@@H](Cc1ccc(O)cc1)C(=O)N[C@@H](Cc1ccc(O)cc1)C(=O)N[C@@H](CC(N)=O)C(=O)N[C@@H](Cc1c[nH]c2ccccc12)C(=O)N[C@@H](CC(C)C)C(=O)N[C@H](C(=O)N[C@@H](CCCNC(=N)N)C(=O)N[C@@H](CCC(N)=O)C(=O)N[C@@H](CCCNC(=N)N)C(=O)N[C@@H](Cc1ccc(O)cc1)C(N)=O)[C@@H](C)O)C(C)C [Compound 56, N{alpha-4}-(3-methylbutanoyl)-N{epsilon-7}-[2-(2-{2-[2-(2-{2-[(4S)-4-carboxy-4-(17-carboxyheptadecanamido)butanamido]ethoxy}ethoxy)acetamido]ethoxy}ethoxy)acetamido]-[4A,7K,9E,10A,13E,18Q,22V,28Y,30W,31L]hPYY (4-36)] | 1.26 | 53
